Experimental findings from patent US4028185A, “Method for producing L(+)-tartaric acid” (priority 1975, dated 1977) are described below.

The experiment has as its system Acinetobacter tartarogenes KB-112. As to the kind of experiment: Effect of nonionic surfactant (0.1 %) on conversion of calcium cis-epoxysuccinate to L(+)-tartaric acid. In kind it is cell-based. The conditions noted are these: 30° C., 2 days; for Mole Yields (%) of L(+)-tartaric acid: cis-epoxysuccinate 40 % as free acid, particle size 60 micron, not added: 34; for Rate of Residues (%) of cis-epoxysuccinic acid: residue of 12 g as free acid = 100 %, not added: 64. On the procedure:
Acinetobacter tartarogenes KB-112 are used to inoculate 30 ml of culture medium, contained in the Erlenmeyer flask of 200 ml-capacity, which culture medium having been set up into such constitution that, to the basic culture medium which is composed of casamino acid (0.05 %), ammonium nitrate (0.1 %), dipotassium hydrogen phosphate (0.2 %), magnesium sulfate (0.05 %), ferrous sulfate (0.001 %), pH 7.0, various sorts of nonionic surfactants are added so that the respective kinds of surface active agents may come to the concentration of 0.1 %. And simultaneously, the crystals of calcium cis-epoxysuccinate (average particle size: 60 micron) is added, in such way that it may come to the final concentration of 40 % counted as the free acid; and the above mixture is subjected to rotatory shake culture at 30° C., and for 2 days, and thence being allowed to exert reaction effect. After the termination of reaction, and the crystals are collected by filtration and, after addition of sulfuric acid, subjected to centrifugal separator to eliminate the solid substances. Subsequently, the quantitative determinations are made, with respect to L(+)-tartaric acid, by depending upon the optical rotation at 436 mμ; and with respect to the remaining cis-epoxysuccinic acid, by using Payne & Williams Method (G. B. Payne and P. H. Williams: Journal of Organic Chemistry, 24, 54, (1959)).

Take `CCCCCCCCCCCCCCCCCC(=O)OCC(O)CO` (stereo not drawn) [NIKKOL MGS-C, Glyceryl monostearate]: the “Mole Yields (%) of L(+)-tartaric acid” value is on record as 48% and the “Rate of Residues (%) of cis-epoxysuccinic acid” value was 47%.

“Propyleneglycol monostearate [NIKKOL PMS-SE]”: the “Mole Yields (%) of L(+)-tartaric acid” value is 46% and the “Rate of Residues (%) of cis-epoxysuccinic acid” value is listed as 50%.

Sorbitan monooleate [NIKKOL SR-10]: the “Mole Yields (%) of L(+)-tartaric acid” value amounted to 45% and the “Rate of Residues (%) of cis-epoxysuccinic acid” value stood at 52%.
